# Measurements: EPA's ToxRefDB 2
# What was measured:
# mouse [1] = details: Carcinogenicity, b6c3f1, Oral, Feed, dose end: 103 week, group: systemic
# rat [2] = details: Carcinogenicity; fischer; Oral; Feed; dose end: 103 week; group: systemic; systemic / in life observation / body weight / body weight
# mouse [3] = details: Subchronic oral toxicity in rodents, b6c3f1, Feed, dose end: 13 week, group: systemic
# rat [4] = details: Subchronic oral toxicity in rodents, fischer, Feed, dose end: 13 week, group: systemic, systemic / pathology microscopic / kidney / inflammation
# rat [5] = details: Subchronic oral toxicity in rodents, sprague dawley, Gavage/Intubation, dose end: 91 day, group: systemic
# dog [6] = details: Subchronic oral toxicity in nonrodent, beagle, Gavage/Intubation, dose end: 91 day, group: systemic, systemic / organ weight / liver / absolute + systemic / clinical chemistry / alanine aminotransferase (alt/sgpt) / alanine aminotransferase…
# primate [7] = details: Sub-acute repeat dose toxicity, Oral, Gavage/Intubation, dose end: 14 day, group: systemic
# primate [8] = details: Sub-acute repeat dose toxicity; Oral; Gavage/Intubation; dose end: 7 day; group: systemic; systemic / pathology gross / stomach / erosion + systemic / pathology gross / stomach / foci + systemic / pathology gross / stomach / lesion…
# primate [9] = details: Sub-acute repeat dose toxicity; Oral; Gavage/Intubation; dose end: 14 day; group: systemic; systemic / clinical chemistry / albumin / albumin + systemic / hematology / fibrinogen / fibrinogen + systemic / hematology / neutrophils / …
# rat [10] = details: Sub-acute repeat dose toxicity, sprague dawley, Oral, Gavage/Intubation, dose end: 14 day, group: systemic
# mouse [11] = details: Sub-acute repeat dose toxicity, Oral, Gavage/Intubation, dose end: 14 day, group: systemic
# rat [12] = details: Prenatal developmental toxicity study, other, Oral, Gavage/Intubation, dose end: 15 GD
# dog [13] = details: Subchronic oral toxicity in nonrodent, beagle, Feed, dose end: 14 week, group: systemic
# [14] = systemic / in life observation / body weight / body weight
# [15] = systemic / in life observation / body weight / body weight + systemic / in life observation / mortality / mortality
# [16] = systemic / in life observation / body weight / body weight gain + systemic / pathology microscopic / kidney / inflammation + systemic / …
# [17] = systemic / clinical chemistry / [other] / [other] + systemic / clinical chemistry / alanine aminotransferase (alt/sgpt) / alanine …
# [18] = systemic / clinical chemistry / alanine aminotransferase (alt/sgpt) / alanine aminotransferase (alt/sgpt) + systemic / clinical chemistry / …
# [19] = systemic / clinical chemistry / cytochrome p450, nos / cytochrome p450, nos + systemic / in life observation / clinical signs / abnormal …
# [20] = systemic / in life observation / food consumption / food consumption + systemic / clinical chemistry / cytochrome p450, nos / cytochrome …
# [21] = systemic / organ weight / liver / absolute + systemic / in life observation / clinical signs / salivation
# [22] = systemic / clinical chemistry / [other] / [other] + systemic / clinical chemistry / 5' nucleotidase / 5' nucleotidase + systemic / clinical …
# [23] = group: developmental, developmental / developmental malformation / bone / fused
# [24] = group: developmental, developmental / developmental malformation / bone / fused + developmental / developmental malformation / bone / incomplete ossification + …
# [25] = group: maternal, systemic / in life observation / body weight / body weight gain + systemic / in life observation / food consumption / food consumption
# [26] = systemic / in life observation / food consumption / food efficiency + systemic / in life observation / body weight / body weight gain + …
compound,measurement,setting,value
CC(C)[C@@H]1CC[C@@H](C)C[C@H]1O (racemic) [dl-Menthol],LEL,mouse [1]; [14],300 mg/kg/day
same,NEL,mouse [1]; [14],< 300 mg/kg/day
same,LOAEL,mouse [1]; [15],> 600 mg/kg/day
same,NOAEL,mouse [1]; [15],≥ 600 mg/kg/day
same,LEL,rat [2],375 mg/kg/day
same,LOAEL,rat [2],> 18700 mg/kg/day
same,NEL,rat [2],< 375 mg/kg/day
same,NOAEL,rat [2],≥ 18700 mg/kg/day
same,LOAEL,mouse [3]; [16],> 2250 mg/kg/day
same,NEL,mouse [3]; [16],562 mg/kg/day
same,NOAEL,mouse [3]; [16],≥ 2250 mg/kg/day
same,LEL,mouse [3]; systemic / pathology microscopic / kidney / inflammation + systemic / pathology microscopic / lymph node / hyperplasia,1120 mg/kg/day
same,LEL,rat [4],750 mg/kg/day
same,LOAEL,rat [4],> 750 mg/kg/day
same,NEL,rat [4],375 mg/kg/day
same,NOAEL,rat [4],≥ 750 mg/kg/day
CC(=O)NCCN1CCc2cc(NC(=O)c3ccccc3-c3ccc(C(F)(F)F)cc3)ccc2C1,LOAEL,rat [5]; [17],> 50 mg/kg/day
same,NOAEL,rat [5]; [17],≥ 50 mg/kg/day
same,LEL,rat [5]; [18],1 mg/kg/day
same,NEL,rat [5]; [18],< 1 mg/kg/day
same,LEL,dog [6],1 mg/kg/day
same,LOAEL,dog [6],> 5 mg/kg/day
same,NEL,dog [6],< 1 mg/kg/day
same,NOAEL,dog [6],≥ 5 mg/kg/day
CC(C)c1cccc(C(C)C)c1NC(=O)[N-]S(=O)(=O)c1cc(C(C)(C)O)co1.[Na+],LEL,primate [7]; [19],300 mg/kg/day
same,NEL,primate [7]; [19],100 mg/kg/day
same,LOAEL,primate [7]; [20],> 500 mg/kg/day
same,NOAEL,primate [7]; [20],≥ 500 mg/kg/day
same,LEL,primate [8],300 mg/kg/day
same,LOAEL,primate [8],> 300 mg/kg/day
same,NEL,primate [8],< 300 mg/kg/day
same,NOAEL,primate [8],≥ 300 mg/kg/day
same,LEL,primate [9],100 mg/kg/day
same,LOAEL,primate [9],> 100 mg/kg/day
same,NEL,primate [9],< 100 mg/kg/day
same,NOAEL,primate [9],≥ 100 mg/kg/day
same,NEL,rat [10]; systemic / organ weight / liver / absolute,20 mg/kg/day
same,LEL,rat [10]; [21],100 mg/kg/day
same,LOAEL,rat [10]; [21],> 300 mg/kg/day
same,NOAEL,rat [10]; [21],≥ 300 mg/kg/day
same,LOAEL,mouse [11]; [22],> 300 mg/kg/day
same,NEL,mouse [11]; [22],75 mg/kg/day
same,NOAEL,mouse [11]; [22],≥ 300 mg/kg/day
same,LEL,mouse [11]; systemic / in life observation / body weight / body weight gain + systemic / organ weight / liver / absolute,150 mg/kg/day
CCNc1nc(N)nc(Cl)n1 [Deisopropylatrazine],LEL,rat [12]; [23],25 mg/kg/day
same,LOAEL,rat [12]; [23],25 mg/kg/day
same,NEL,rat [12]; [24],5 mg/kg/day
same,NOAEL,rat [12]; [24],5 mg/kg/day
same,LEL,rat [12]; [25],25 mg/kg/day
same,LOAEL,rat [12]; [25],25 mg/kg/day
same,NEL,rat [12]; [25],5 mg/kg/day
same,NOAEL,rat [12]; [25],5 mg/kg/day
same,LOAEL,dog [13]; systemic / in life observation / food consumption / food efficiency,18 mg/kg/day
same,LEL,dog [13]; [26],18 mg/kg/day
same,NEL,dog [13]; [26],3.8 mg/kg/day
same,NOAEL,dog [13]; [26],3.8 mg/kg/day
